Legend:
[1] = system: waterhemp; test: Test C postemergence; type: in vivo, Amaranthus rudis; settings: for Plant response rating (0 to 100), Waterhemp: postemergence; for Plant response rating, Waterhemp: Postemergence, scale 0 to 100 (0 no effect, 100 complete control)
Outline: (§1)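 Visual injury score versus untreated controls, 0 = no effect, 100 = complete control, taken 13 to 15 days after treatment in the greenhouse. Pre-emergence pots held loam/sand; post-emergence plants grew in sphagnum peat/vermiculite mix and were sprayed at the 1- to 4-leaf stage.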

[2] = system: johnsongrass; test: Test C postemergence; type: in vivo, Sorghum halepense; settings: for Plant response rating (0 to 100), Johnsongrass: postemergence
Outline: as §1

[3] = system: corn; test: Test A preemergence; type: in vivo, Zea mays
Outline: (§2)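 Visual injury scored 0–100 (100 = complete control) against untreated controls about 10 days after treatment in a greenhouse. Test chemicals, formulated with surfactant in non-phytotoxic solvent, were sprayed on soil preemergence or on 2-10 cm, one- to two-leaf plants postemergence.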

[4] = system: velvetleaf; test: Test C postemergence; type: in vivo, Abutilon theophrasti; settings: for Plant response rating (0 to 100), Velvetleaf: postemergence; for Plant response rating, Velvetleaf: Postemergence, scale 0 to 100 (0 no effect, 100 complete control)
Outline: as §1

[5] = system: Italian ryegrass; test: Test C postemergence; type: in vivo, Lolium multiflorum; settings: for Plant response rating (0 to 100), Ryegrass, Italian: postemergence; for Plant response rating, Ryegrass, Italian: Postemergence, scale 0 to 100 (0 no effect, 100 complete control)
Outline: as §1

[6] = system: sedge, umbrella; test: Test B flooded paddy test; type: in vivo, Cyperus difformis; settings: Flood, 250 g ai/ha; 0 to 100 scale where 0 is no effect and 100 is complete control
Outline: (§3)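 2-leaf stage plants; pots flooded to 3 cm, compound added to paddy water, depth maintained. Greenhouse 13–15 d. Visual rating vs untreated controls, 0 (no effect) to 100 (complete control); dash = no result.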

[7] = system: morningglory; test: Test A preemergence; type: in vivo, Ipomoea spp.; settings: for Morningglory plant response rating: 0 to 100 scale, 0 no effect, 100 complete control, approx. 10 days
Outline: as §2

[8] = system: barnyardgrass; test: Test B flooded paddy test; type: in vivo, Echinochloa crus-galli; settings: Flood, 250 g ai/ha; 0 to 100 scale where 0 is no effect and 100 is complete control
Outline: as §3

[9] = system: pigweed; test: Test C postemergence; type: in vivo, Amaranthus retroflexus; settings: for Plant response rating (0 to 100), Pigweed: postemergence; for Plant response rating, Pigweed: Postemergence, scale 0 to 100 (0 no effect, 100 complete control)
Outline: as §1

[10] = system: wild oat; test: Test C postemergence; type: in vivo, Avena fatua; settings: for Plant response rating (0 to 100), Oat, Wild: postemergence; for Plant response rating, Oat, Wild: Postemergence, scale 0 to 100 (0 no effect, 100 complete control)
Outline: as §1

[11] = system: barnyardgrass; test: Test A postemergence; type: in vivo, Echinochloa crus-galli
Outline: as §2

[12] = system: barnyardgrass; test: Test C postemergence; type: in vivo, Echinochloa crus-galli; settings: for Plant response rating (0 to 100), Barnyardgrass: postemergence; for Plant response rating, Barnyardgrass: Postemergence, scale 0 to 100 (0 no effect, 100 complete control)
Outline: as §1

[13] = system: yellow nutsedge; test: Test C postemergence; type: in vivo, Cyperus esculentus; settings: for Plant response rating (0 to 100), Nutsedge, Yellow: postemergence; for Plant response rating, Nutsedge, Yellow: Postemergence, scale 0 to 100 (0 no effect, 100 complete control)
Outline: as §1

[14] = 125 g ai/ha, 0 to 100 scale where 0 is no effect and 100 is complete control
[15] = 8 g ai/ha, 0 is no effect, 100 is complete control
[16] = 16 g ai/ha, 0 is no effect, 100 is complete control
[17] = 1000 g ai/ha, 0 to 100 scale, 0 no effect, 100 complete control

With `N#Cc1cccc(Oc2ncc(Cl)cn2)c1-n1cnc(Br)c1` [Compound 74] the “Plant response rating (0 to 100), Waterhemp” value ([1]; 125 g ai/ha) was 60, the “Plant response rating (0 to 100), Waterhemp” value ([1]; 250 g ai/ha) was 80 and the “Plant response rating, Waterhemp” value ([1]; 31 g ai/ha, 13 to 15 days) was 35. For the same compound, the “Plant response rating, Waterhemp” value ([1]; 62 g ai/ha) was 60, the “Plant response rating (0 to 100), Johnsongrass” value ([2]; 125 g ai/ha) was 25 and the “Plant response rating (0 to 100), Johnsongrass” value ([2]; 250 g ai/ha) was 25. For the same compound, the “Plant response rating, Johnsongrass” value ([2]; Postemergence, 62 g ai/ha, scale 0 to 100 (0 no effect, 100 complete control)) was 0, the “Plant response rating, Corn” value [3, 14] was 0 and the “Corn plant response rating” value ([3]; 500 g ai/ha, 0 to 100 scale, 0 no effect, 100 complete control, approx. 10 days) was 40. For the same compound, the “Plant response rating (0 to 100), Velvetleaf” value ([4]; 125 g ai/ha) was 50, the “Plant response rating (0 to 100), Velvetleaf” value ([4]; 250 g ai/ha) was 65 and the “Plant response rating, Velvetleaf” value ([4]; 31 g ai/ha, 13 to 15 days) was 30. For the same compound, the “Plant response rating, Velvetleaf” value ([4]; 62 g ai/ha) was 35, the “Plant response rating (0 to 100), Ryegrass, Italian” value ([5]; 125 g ai/ha) was 0 and the “Plant response rating (0 to 100), Ryegrass, Italian” value ([5]; 250 g ai/ha) was 5. For the same compound, the “Plant response rating, Ryegrass, Italian” value ([5]; 31 g ai/ha, 13 to 15 days) was 0, the “Plant response rating, Ryegrass, Italian” value ([5]; 62 g ai/ha) was 0 and the “Plant response rating, Sedge, Umbrella” value [6] was 70. The “Plant response rating, Morningglory” value [7, 14] was 70, the “Morningglory plant response rating” value ([7]; 500 g ai/ha) was 100 and the “Plant response rating, Barnyardgrass” value [8] was 0. For the same compound, the “Plant response rating (0 to 100), Pigweed” value ([9]; 125 g ai/ha) was 65, the “Plant response rating (0 to 100), Pigweed” value ([9]; 250 g ai/ha) was 80 and the “Plant response rating, Pigweed” value ([9]; 31 g ai/ha, 13 to 15 days) was 40. The “Plant response rating, Pigweed” value ([9]; 62 g ai/ha) was 60, the “Plant response rating (0 to 100), Oat, Wild” value ([10]; 125 g ai/ha) was 10 and the “Plant response rating (0 to 100), Oat, Wild” value ([10]; 250 g ai/ha) was 10. The “Plant response rating, Oat, Wild” value ([10]; 31 g ai/ha, 13 to 15 days) was 0, the “Plant response rating, Oat, Wild” value ([10]; 62 g ai/ha) was 0 and the “Plant response rating, Barnyardgrass” value [11, 14] was 90. For the same compound, the “Plant response rating, Barnyardgrass” value ([11]; 500 g ai/ha, 0 to 100 scale, 0 no effect, 100 complete control) was 90, the “Plant response rating (0 to 100), Barnyardgrass” value ([12]; 125 g ai/ha) was 5 and the “Plant response rating (0 to 100), Barnyardgrass” value ([12]; 250 g ai/ha) was 15. For the same compound, the “Plant response rating, Barnyardgrass” value ([12]; 31 g ai/ha, 13 to 15 days) was 0, the “Plant response rating, Barnyardgrass” value ([12]; 62 g ai/ha) was 5 and the “Plant response rating (0 to 100), Nutsedge, Yellow” value ([13]; 125 g ai/ha) was 0. The “Plant response rating (0 to 100), Nutsedge, Yellow” value ([13]; 250 g ai/ha) was 0, the “Plant response rating, Nutsedge, Yellow” value ([13]; 31 g ai/ha, 13 to 15 days) was 0 and the “Plant response rating, Nutsedge, Yellow” value ([13]; 62 g ai/ha) was 0.

With `CC(=NO)c1cn(-c2c(Br)cccc2Oc2ncc(Cl)cn2)nn1` [Compound 115] the “Plant response rating (0 to 100), Waterhemp” value [1, 15] was 5, the “Plant response rating (0 to 100), Waterhemp” value [1, 16] was 30 and the “Plant response rating (0 to 100), Johnsongrass” value [2, 15] was 5. For the same compound, the “Plant response rating (0 to 100), Johnsongrass” value [2, 16] was 5, the “Plant response rating, Corn” value [3, 17] was 60 and the “Plant response rating (0 to 100), Velvetleaf” value [4, 15] was 5. The “Plant response rating (0 to 100), Velvetleaf” value [4, 16] was 5, the “Plant response rating (0 to 100), Ryegrass, Italian” value [5, 15] was 0 and the “Plant response rating (0 to 100), Ryegrass, Italian” value [5, 16] was 0. For the same compound, the “Plant response rating, Sedge, Umbrella” value [6] was 20, the “Morningglory plant response rating” value ([7]; 1000 g ai/ha) was 50 and the “Plant response rating, Barnyardgrass” value [8] was 0. The “Plant response rating (0 to 100), Pigweed” value [9, 15] was 15, the “Plant response rating (0 to 100), Pigweed” value [9, 16] was 50 and the “Plant response rating (0 to 100), Oat, Wild” value [10, 15] was 0. For the same compound, the “Plant response rating (0 to 100), Oat, Wild” value [10, 16] was 0, the “Plant response rating, Barnyardgrass” value [11, 17] was 90 and the “Plant response rating (0 to 100), Barnyardgrass” value ([12]; 4 g ai/ha, 0 is no effect, 100 is complete control) was 0. For the same compound, the “Plant response rating (0 to 100), Barnyardgrass” value [12, 15] was 0, the “Plant response rating (0 to 100), Barnyardgrass” value [12, 16] was 0 and the “Plant response rating, Barnyardgrass” value ([12]; 31 g ai/ha, 13 to 15 days) was 5. The “Plant response rating (0 to 100), Nutsedge, Yellow” value [13, 15] was 0 and the “Plant response rating (0 to 100), Nutsedge, Yellow” value [13, 16] was 0.
